According to US4395969A (priority 1981, dated 1983):
Where “and” joins values, the source holds several entries; their conditions need not be identical. Equal entries are not always repeated.

Assays:
threespine stickleback [1] = tested on: threespine stickleback; parameters: species or system Gasterosteus aculeatus; conditions: in vivo
white sucker = assay: Static bioassay, lethal concentration to white sucker; format: in vivo, C. commmersoni; conditions: 20 C
Protocol: (§1) Bioassays utilized water from an artesian well at Moscow, Idaho and from the headwaters of the Palouse River, also in Idaho. The chemical characteristics of the artesian water were analyzed as follows: Total hardness 67-120 mg/l; total dissolved solids, 160-175 mg/l; and pH 7.1. The chemistry of the Palouse River water was analyzed as follows: total hardness 17 mg/l; methyl orange alkalinity 26 mg/l; total dissolved solids, 32 mg/l and pH, 7.0.
(§2) Fish were acclimated to test temperatures, usually at 5, 7.5, 10, 15 and 20 degrees Celsius (C), at least 60 hours before exposure to toxicants. For fish and crayfish four water baths regulated the temperature of assay aquaria. Each water bath contained a battery of 20 identical 19-liter clear glass containers or 11.4-liter plastic aquaria lined with disposable polyethylene bags and covered with Plexiglass lids to reduce evaporation. For larger fish and large numbers of fish the bioassays were made in two temperature controlled rooms that contained a series of 700-liter circular fiberglass vats and a series of 76- and 91-liter plastic containers.
(§3) Standard bioassay techniques were used in sorting fish and conducting the tests. Fish were placed in aerated test aquaria overnight to permit fish to recover from stress due to handling and to deprive them of food. The average load varied but most bioassays were conducted with about 1 g of fish per liter of water.
(§4) Aliquots of organophosphates were dissolved in ethanol and dispensed to the aquaria to provide concentrations suitable for obtaining the LC0 and LC50 of desirable fish and the LC50 and LC100 of target fish. Control fish were conditioned in the same manner as the test fish, but no chemical was added to the control vessels during the assays. After the addition of a chemical, observations were made mainly at 3, 6, 12, 24, 48, 96, and 192 h. The weight and fork length of fish were obtained when fishes were sacrificed.
(§5) Delineation bioassays determined primarily the LC50 and LC100 of sucker and stickleback and the LC0 and LC50 of salmonids.
(§6) The statistical LC1, LC50, and LC99 were interpolated and/or extrapolated using probit graph paper to approximate the LC0, LC50, and LC100 when the latter set of values was not closely determined by single concentrations in a series.
(§7) The approximate LC50 and LC100 of the target fishes (threespine and brook sticklebacks and bridgelip and white suckers) are tabulated in Table 1. The 96-hour selectivity and safety indices of selected species of salmonids versus the three-spine stickleback are tabulated in Table 3.
(§8) Threespine stickleback, brook stickleback, bridgelip sucker, white sucker, chinook salmon, coho salmon, sockeye salmon, kokanee, Kamloops trout, cutthroat trout, and brook trout were treated with various concentrations of 2, 2, 2, 1-tetrachloroethyl diethyl phosphate and at various temperatures to determine approximate selectivity and safety indices. The approximate LC50 and LC100 of the target fishes (threespine and brook sticklebacks and bridgelip and white suckers) are tabulated in Table 5. The 96-hour selectivity and safety indices of selected species of salmonids versus the threespine stickleback are tabulated in Table 7.

[2] = Static bioassay, lethal concentration to sockeye salmon; format: in vivo, O. nerka; conditions: sockeye salmon, in vivo
Protocol: as §1, §2, §3, §4, §5, §6, §7, §8

sockeye salmon = assay: as above; format: in vivo, O. nerka
Protocol: as §1, §2, §3, §4, §5, §6, §7, §8

[3] = Static bioassay, lethal concentration to Kamloops trout; format: in vivo, Kamloops (an adfluvial rainbow trout); conditions: kamloops trout, in vivo
Protocol: as §1, §2, §3, §4, §5, §6, §7, §8

Kamloops trout = assay: as above; format: in vivo, Kamloops (an adfluvial rainbow trout)
Protocol: as §1, §2, §3, §4, §5, §6, §7, §8

[4] = Static bioassay, lethal concentration to brook trout; format: in vivo, Salvelinus fontinalis; conditions: brook trout, water, 15 C
Protocol: as §1, §2, §3, §4, §5, §6, §7, §8

brook trout = assay: as above; format: in vivo, Salvelinus fontinalis; conditions: 15 C
Protocol: as §1, §2, §3, §4, §5, §6, §7, §8

threespine stickleback [5] = tested on: threespine stickleback; parameters: species or system Gasterosteus aculeatus; conditions: in vivo; remark: listed apart in the source
crayfish = assay: Bioassay, crayfish; format: in vivo, Pacifasticus klamathensis; conditions: 10 C
Protocol: Cursory bioassays were made with small numbers of other fishes and a crayfish (Pacifasticus klamathensis) to check on the universal selectivity of the toxicants. The fishes included Arctic grayling (Thymallus arcticus), longnose sucker (C. catastomus), largescale sucker, (C. macrocheilus), and spotted sucker (Minytrema melanops).
A series of bioassays tested crayfish (9 to 10 crayfish per aquarium) at concentrations of 1, 3, and 10 mg/l of 2, 2-dichlorovinyl diethyl phosphate. […] A second series of bioassays tested crayfish (10 crayfish per aquarium) at 10 concentrations of 2, 2, 2, 1-tetrachloroethyl diethyl phosphate (range, 0 to 1400 μg/l).

[6] = Half-life / degradation in water (gas chromatograph analysis); format: physicochemical; conditions: river water, 15 C
Source text: The presence of bacteria and other microorganisms affect the rate of degradation of the dichloro- and tetrachloro-compounds. Because of this the chemicals break down much faster in river water than in artesian well water or distilled water. For short term bioassays the potencies of the chemicals were not affected by the chemistry of the water.

sucker and stickleback = conditions: in vivo
chinook salmon = assay: Long-term static bioassay, chinook salmon; conditions: 300 μg/l, 64 days, 10 C, individually
[7] = 10 C, individually, read-out: LC50
[8] = with 4 Cl 300:1, 10 C, read-out: LC50 in combination, 2 Cl component

CCOP(=O)(OC=C(Cl)Cl)OCC [2,2-dichlorovinyl diethyl phosphate]
LC50 in combination, 2 Cl component (threespine stickleback [1]): 0.3 µg/mL and 0.2 µg/mL
LC50 (white sucker; 24 h): 0.10 µg/mL
LC50 (white sucker; 48 h): 0.07 µg/mL
LC50 (white sucker; 96 h): 0.06 µg/mL
LC100 (white sucker; 96 h): 0.10 mg/L
LC50 (white sucker; 192 h): 0.05 µg/mL
LC100 (white sucker; 192 h): 0.10 mg/L
LC50 at 48 h ([2]; 7.5 C): > 10 µg/mL
LC50 at 96 h ([2]; 7.5 C, read-out: LC50): 9 µg/mL
LC50 at 192 h ([2]; 7.5 C, read-out: LC50): 4 µg/mL
LC50 at 48 h ([2]; 10 C): > 8 µg/mL
LC50 at 96 h [2, 7]: 6 µg/mL
LC50 at 96 h ([2]; 10 C, read-out: LC50): 6 µg/mL
LC50 at 192 h [2, 7]: 3.6 µg/mL
LC50 at 192 h ([2]; 10 C, read-out: LC50): 3.4 µg/mL
LC50 at 96 h [2, 8]: 2.4 µg/mL
LC50 at 192 h [2, 8]: 1.8 µg/mL
LC0 (sockeye salmon; 7.5 C, 48 h): > 10.0 mg/L
LC0 (sockeye salmon; 7.5 C, 96 h): 6.0 mg/L
LC0 (sockeye salmon; 7.5 C, 192 h): 2.0 mg/L
LC0 (sockeye salmon; 10 C, 48 h): 6.0 mg/L
LC0 (sockeye salmon; 10 C, 96 h): 3.0 mg/L
LC0 (sockeye salmon; 10 C, 96 h, individually, listed as 2, 2-dichlorovinyl diethyl phosphate): 3 mg/L
LC0 (sockeye salmon; 10 C, 96 h, individually, listed as 2 Cl): 3.6 mg/L
LC0 (sockeye salmon; 10 C, 192 h): 2.0 mg/L
LC50 at 192 h ([3]; 5 C, read-out: LC50): 5.1 µg/mL
LC50 at 96 h [3, 7]: 5 µg/mL
LC50 at 96 h ([3]; 10 C, read-out: LC50): 5.4 µg/mL
LC50 at 192 h [3, 7]: 2 µg/mL
LC50 at 192 h ([3]; 10 C, read-out: LC50): 2 µg/mL
LC50 at 96 h ([3]; 15 C, read-out: LC50): 3.5 µg/mL
LC50 at 192 h ([3]; 15 C, read-out: LC50): 3 µg/mL
LC50 at 96 h [3, 8]: 2.4 µg/mL
LC50 at 192 h [3, 8]: 1.5 µg/mL
LC0 (Kamloops trout; 5 C, 48 h): > 4.0 mg/L
LC0 (Kamloops trout; 5 C, 96 h): 2.0 mg/L
LC0 (Kamloops trout; 5 C, 192 h): 1.4 mg/L
LC0 (Kamloops trout; 10 C, 48 h): > 4.0 mg/L
LC0 (Kamloops trout; 10 C, 96 h): 2.0 mg/L
LC0 (Kamloops trout; 10 C, 96 h, individually): 2 mg/L
LC0 (Kamloops trout; 10 C, 192 h): 1.0 mg/L
LC0 (Kamloops trout; 15 C, 48 h): 3.0 mg/L
LC0 (Kamloops trout; 15 C, 96 h): 1.0 mg/L
LC0 (Kamloops trout; 15 C, 192 h): 1.0 mg/L
LC50 at 48 h ([4]; 48 h): 5 µg/mL
LC50 at 96 h ([4]; 96 h): 3.3 µg/mL
LC50 at 192 h ([4]; 192 h): 3.2 µg/mL
LC0 (brook trout; 48 h): 4.0 mg/L
LC0 (brook trout; 96 h): 2.0 mg/L
LC0 (brook trout; 192 h): 0.8 mg/L
Selectivity index (LC50/LC50) (threespine stickleback [5]): 5.7
crayfish mortality (crayfish; 1 mg/l, 96 h): No crayfish died
crayfish mortality (crayfish; 3 mg/l, 96 h): 1 out of 9 crayfish died
crayfish mortality (crayfish; 10 mg/l, 24 h): No crayfish died
half-life [6]: < 20 days
potency for suckers relative to stickleback (sucker and stickleback): about 10 times
mortality (chinook salmon): essentially no mortality
mortality (chinook salmon; listed as 2, 2-dichlorovinyl diethyl phosphate): no significant mortality
